Data as given in patent US20120022045A1, “BRIDGED COMPOUNDS AS HIV INTEGRASE INHIBITORS” (priority 2009, published 2012).
Read-outs that look alike come from different tables or passages of the source.

Columns and labels:
[1] = system: HIV-1 integrase mutant virus Q148R; experiment: Single cycle infectivity assay in HeLa P4-2 cells, integrase mutant Q148R virus; format: cell-based; conditions: fold shift in IC50 versus wild type IIIB
How it was run: (§1)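 HeLa P4-2 cells used in a single-cycle acute HIV-1 infection assay. Wild-type IIIB or integrase mutant viruses made by site-directed mutagenesis of proviral plasmids and produced by transfection of 293T cells.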

[2] = system: HIV-1 integrase mutant virus G140S/Q148H; experiment: Single cycle infectivity assay in HeLa P4-2 cells, integrase mutant G140S/Q148H virus; format: cell-based; conditions: fold shift in IC50 versus wild type IIIB
How it was run: as §1

HIV-1 = experiment: Inhibition of acute HIV-1 infection of T-lymphoid cells (spread assay); format: cell-based; conditions: 10% FBS, read-out: IC95 (nM) in the presence of 10% FBS
Method: Assays for the inhibition of acute HIV-1 infection of T-lymphoid cells were conducted in accordance with Vacca, J. P. et al., Proc. Natl. Acad. Sci. USA 1994, 91: 4096.

[3] = system: HIV-1 integrase mutant virus Y143R; experiment: Single cycle infectivity assay in HeLa P4-2 cells, integrase mutant Y143R virus; format: cell-based; conditions: fold shift in IC50 versus wild type IIIB
How it was run: as §1

HIV-1 integrase = molecular target: T1, HIV-1 integrase (Human immunodeficiency virus type 1 group M subtype B, UniProt P04585); experiment: HIV integrase assay: strand transfer catalyzed by recombinant integrase; format: biochemical; conditions: strand transfer activity
T1 construct: strand transfer activity of HIV-1 integrase
Method: Assays for the strand transfer activity of HIV-1 integrase were conducted in accordance with WO 02/30930 for recombinant integrase.
Further description on conducting the assay using preassembled complexes is found in Wolfe, A. L. et al., J. Virol. 1996, 70: 1424-1432, Hazuda et al., J. Virol. 1997, 71: 7005-7011; Hazuda et al., Drug Design and Discovery 1997, 15: 17-24; and Hazuda et al., Science 2000, 287: 646-650.

[4] = system: HIV-1 integrase mutant virus N155H; experiment: Single cycle infectivity assay in HeLa P4-2 cells, integrase mutant N155H virus; format: cell-based; conditions: fold shift in IC50 versus wild type IIIB
How it was run: as §1

HIV-1 wild type IIIB = experiment: Single cycle infectivity assay in HeLa P4-2 cells, wild type virus; format: cell-based
How it was run: as §1

[5] = Human immunodeficiency virus 1, T-lymphoid
[6] = Human immunodeficiency virus 1, IIIB, HeLaP4-2, wild type IIIB

Row | Structure (SMILES) | Q148R (shift) [1] [fold] | G140S/Q148H (shift) [2] [fold] | IC95 (HIV-1; [5]) [nM] | Y143R (shift) [3] [fold] | IC50 (HIV-1 integrase) [nM] | N155H (shift) [4] [fold] | IC50 (HIV-1 wild type IIIB; wild type IIIB) [nM] | IC50 (HIV-1 wild type IIIB; [6]) [nM] | IC95 (HIV-1) [nM]
1 | CCN(C(=O)C(=O)N(C)C)C12CCC(Cn3c1nc(C(=O)NCc1ccc(F)cc1)c(O)c3=O)OC2 (single isomer, unassigned) [Example 12A, N-Ethyl-N-(4-{[(4-fluorobenzyl)amino]carbonyl}-5-hydroxy-6-oxo-10-oxa-3,7-diazatricyclo[7.2.2.0^2,7]trideca-2,4-dien-1-yl)-N′,N′-dimethylethanediamide] | 7 | 112 | 11 | 2 | 11 | 6 | 23 | – | –
2 | Cc1cc(CNC(=O)c2nc3n(c(=O)c2O)CC2CCC3(N(C)C(=O)C(=O)N(C)C)CC2)ccc1F [Example 2, N-(4-{[(4-fluoro-3-methylbenzyl)amino]carbonyl}-5-hydroxy-6-oxo-3,7-diazatricyclo[7.2.2.0^2,7]trideca-2,4-dien-1-yl)-N,N′,N″-trimethylethanediamide] | 2 | 5 | 7.2 | 1 | 15 | 2 | – | 4 | –
3 | CN(C)C(=O)C(=O)NC12CCC(CC1)Cn1c2nc(C(=O)NCc2ccc(F)cc2)c(O)c1=O [Example 5, N′-{2-[(4-fluorobenzyl)carbamoyl]-3-hydroxy-4-oxo-6,7,8,9-tetrahydro-7,10-ethanopyrimido[1,2-a]azepin-10(4H)-yl}-N,N-dimethylethanediamide] | 1 | 9 | < 3.9 | 1 | 33 | 2 | – | 6.7 | –
4 | CC1C2CCC(N(C)C(=O)C(=O)N(C)C)(CC2)c2nc(C(=O)NCc3ccc(F)cc3)c(O)c(=O)n21 (single isomer, unassigned) [Example 13A, N-(4-{[(4-fluorobenzyl)amino]carbonyl}-5-hydroxy-8-methyl-6-oxo-3,7-diazatricyclo[7.2.2.0^2,7]trideca-2,4-dien-1-yl)-N′,N′,N″-trimethylethanediamide] | 1 | 2 | – | 2 | 13 | 2 | – | 7 | 8.6
5 | CN(C)C(=O)C(=O)N(C)C12CCC(Cn3c1nc(C(=O)NCc1ccc(F)cc1)c(O)c3=O)OC2 (single isomer, unassigned) [Example 10B, N-(4-{[(4-Fluorobenzyl)amino]carbonyl}-5-hydroxy-6-oxo-10-oxa-3,7-diazatricyclo[7.2.2.0^2,7]trideca-2,4-dien-1-yl)-N′,N′,N′-trimethylethanediamide] | 22 | 12 | – | 6 | 14 | 18 | 30 | – | 15
